Key:
Format in all cases: physicochemical
[1] = Lipid nanoparticle size and polydispersity by dynamic light scattering (Malvern Zetasizer Nano ZS); conditions: LNP of cationic lipid/DSPC/cholesterol/PEG-lipid 50:10:38.5:1.5 with mRNA
Procedure: (§1) Briefly, a cationic lipid provided herein, DSPC, cholesterol, and PEG-lipid were solubilized in ethanol at a molar ratio of 50:10:38.5:1.5, and mRNA were diluted in 10 to 50 mM citrate buffer, pH=4. The LNPs were prepared at a total lipid to mRNA weight ratio of approximately 10:1 to 30:1 by mixing the ethanolic lipid solution with the aqueous mRNA solution at a volume ratio of 1:3 using a microfluidic apparatus, total flow rate ranging from 9-30 mL/min. Ethanol were thereby removed and replaced by DPBS using dialysis. Finally, the lipid nanoparticles were filtered through a 0.2 μm sterile filter.
(§2) Lipid nanoparticle size were determined by dynamic light scattering using a Malvern Zetasizer Nano ZS (Malvern UK) using a 173° backscatter detection mode. The encapsulation efficiency of lipid nanoparticles were determined using a Quant-it Ribogreen RNA quantification assay kit (Thermo Fisher Scientific, UK) according to the manufacturer's instructions.

[2] = Encapsulation efficiency of lipid nanoparticles, Quant-it Ribogreen RNA quantification assay; conditions: LNP with mRNA
Procedure: as §1, §2

[3] = Apparent pKa of LNP formulations, TNS fluorescence assay; conditions: LNP cationic lipid/DSPC/cholesterol/DMG-PEG 50/10/38.5/1.5 mol %, pH 3 to 9
Procedure: As reported in literature, the apparent pKa of LNP formulations correlates with the delivery efficiency of LNPs for nucleic acids in vivo. The apparent pKa of each formulation was determined using an assay based on fluorescence of 2-(p-toluidino)-6-napthalene sulfonic acid (TNS). LNP formulations comprising of cationic lipid/DSPC/cholesterol/DMG-PEG (50/10/38.5/1.5 mol %) in PBS were prepared as described above. TNS was prepared as a 300 uM stock solution in distilled water. LNP formulations were diluted to 0.1 mg/ml total lipid in 3 mL of buffered solutions containing 50 mM sodium citrate, 50 mM sodium phosphate, 50 mM sodium borate, and 30 mM sodium chloride where the pH ranged from 3 to 9. An aliquot of the TNS solution was added to give a final concentration of 0.1 mg/ml and following vortex mixing fluorescence intensity was measured at room temperature in a Molecular Devices Spectramax iD3 spectrometer using excitation and mission wavelengths of 325 nm and 435 nm. A sigmoidal best fit analysis was applied to the fluorescence data and the pKa value was measured as the pH giving rise to half-maximal fluorescent intensity.

polydispersity [1]	size (nm) [1] [nm]	Encapsulation Efficiency [2] [%]	Apparant Pka [3]	Structure (SMILES)
0.03	73.58	92.81		CCCCCCCCCCCCCCCC(=O)OCC(CCCCN(CCO)C1CCCCC1)COC(=O)CC(CCCCCC)CCCCCCCC (centres unmarked) [Compound 86]
0.049	94.89	96.1		CCCCCCC(CCCCCC)COC(=O)CCCCCN(CCN1CCC(O)C1)CC(COC(=O)CCCCC)OC(=O)CCCCC (centres unmarked) [Compound 59]
0.013	110.30	91.81	6.789	CCCCCCCCC(CCCCCC)CC(=O)OCC(CCCCN(CCN(CC)CCO)C1CCC1)COC(=O)CC(CCCCCC)CCCCCCCC (centres unmarked) [Compound 69]
0.04	69.36	92.56	6.926	CCCCC/C=C\C/C=C\CCCCCCCC(=O)OCC(CCCCN(CCO)C1CCC1)COC(=O)CC(CCCCCC)CCCCCCCC (centres unmarked) [Compound 89]
0.023	72.78	88.28	6.79	CCCCCCCCCCC(=O)OCC(CCCCN(CCO)C1CCC1)COC(=O)CC(CCCCCC)CCCCCCCC (centres unmarked) [Compound 81]
0.079	84.46	92.38	6.621	CCCCCCCCCCC(=O)OCC(CCCCN(CCN(CCO)C1CCC1)C1CCC1)COC(=O)CC(CCCCCC)CCCCCCCC (centres unmarked) [Compound 82]
0.031	99.66	83.7	6.221	CCCCCCCCCCCCOCC(CN(CCCCCC(=O)OCCCCCCCCCC)CCN(CCO)C1CCC1)OCCCCCC (centres unmarked) [Compound 49]
0.019	94.04	92.39	6.182	CCCCCCCCC(CCCCCC)CC(=O)OCC(CCCCN(CCCC)CCN(CCO)C1CCC1)COC(=O)CC(CCCCCC)CCCCCCCC (centres unmarked) [Compound 83]
0.051	70.85	90.25		CCCCCCCCCCC(=O)OCC(CCCCN(CCO)C1CCCCCC1)COC(=O)CC(CCCCCC)CCCCCCCC (centres unmarked) [Compound 92]
0.111	63.32	85.30	6.377	CCCCCCCCCCC(=O)OCC(CCCCN(CCO)C1CCCCCCC1)COC(=O)CC(CCCCCC)CCCCCCCC (centres unmarked) [Compound 93]
0.107	53.32	91.0	6.403	CCCCCCCCC(CCCCCCCC)CC(=O)OCC(CCCCN(CCO)C1CCC1)COC(=O)CC(CCCCCCCC)CCCCCCCC [Compound 56]
0.088	76.26	94.69	6.616	CCCCCCCCC(CCCCCCCC)COC(=O)CCOCC(CN(C)CCN(CCO)C1CCCCCC1)OCCC(=O)OCC(CCCCCCCC)CCCCCCCC (centres unmarked) [Compound 73]
0.043	70.38	93.02	7.024	CCCCC/C=C\C/C=C\CCCCCCCC(=O)OCC(CCCCN(CCO)C1CCCC1)COC(=O)CC(CCCCCC)CCCCCCCC (centres unmarked) [Compound 90]
0.025	77.25	94.14	7.059	CCCCCCCCCCCCCCCC(=O)OCC(CCCCN(CCO)C1CCCC1)COC(=O)CC(CCCCCC)CCCCCCCC (centres unmarked) [Compound 99]
0.055	81.89	95.22		CCCCCCCCC(CCCCCCCC)COC(=O)CCOCC(CN(C)CCN(CCO)C1CCCCC1)OCCC(=O)OCC(CCCCCCCC)CCCCCCCC (centres unmarked) [Compound 72]
0.075	73.8	91.6		CCCCC/C=C\C/C=C\CCCCCCCC(=O)OCC(CN(C)CCN(CCO)C1CCC1)OC(=O)CCCCCCC/C=C\C/C=C\CCCCC (centres unmarked) [Compound 64]
0.097	47.87	92.04		CCCCCCCCCC(CCCCC)COC(=O)CCOCC(CN(CCO)C1CCC1)OCCC(=O)OCC(CCCCCC)CCCCCCCC (centres unmarked) [Compound 108]
0.067	61.18	93.66		CCCCCCCCC(CCCCCC)COC(=O)CCOCC(CN(CCCCCC)CCN(CCO)C1CCCCCC1)OCCC(=O)OCC(CCCCCC)CCCCCCCC (centres unmarked) [Compound 107]

Second part, the compound before the results:

Structure (SMILES)	polydispersity [1]	size (nm) [1] [nm]	Encapsulation Efficiency [2] [%]	Apparant Pka [3]
CCCCCCCCCCCCOCC(O)CN(CCCCCC(=O)OCC(CCCCCC)CCCCCCCC)CCN(CC)CC (centres unmarked) [Compound 11]	0.196	77.98	82.2	7.701
CCCCCCCCCCCCOCC(CN(CCCCCC(=O)OCC(CCCCCC)CCCCCCCC)CCN(CCO)C1CCCC1)OCCCCCC (centres unmarked) [Compound 24]	0.094	56.39	93.0	6.005
CCCCCCCCCCCCOCC(CN(CCO)C1CCC1)OC(=O)CCCCC (centres unmarked) [Compound 3]	0.124	105.6	92.8	
CCCCCCCCCCCCOCC(O)CN(CCCCCC(=O)OCC(CCCCCC)CCCCCCCC)CCN1CCCCC1 (centres unmarked) [Compound 8]	0.156	102.9	88.2	7.327
CCCCCCCCCCCCOCC(CN(CCCCCC(=O)OCC(CCCCCC)CCCCCCCC)CCN(CCO)C1CCCCCC1)OCCCCCC (centres unmarked) [Compound 26]	0.153	55.8	93.30	5.696
CCCCCCCCC(CCCCCCCC)CNC(=O)CCOCC(CN(C)CCN(CCO)C1CCCC1)OCCC(=O)NCC(CCCCCCCC)CCCCCCCC (centres unmarked) [Compound 57]	0.055	70.05	97.0	7.73
CCCCCCCCCCCCOCC(CN(C)CCN(CCO)C1CCC1)OCCCCCC (centres unmarked) [Compound 38]	0.194	97.62	76.2	6.971
CCCCCCCCCCCCOCC(CN(CCO)C1CCC1)OC(=O)CCCCCCCCCCC (centres unmarked) [Compound 2]	0.094	69.05	94.5	5.177
CCCCCCCCCCCCOCC(CN(CCCCCC(=O)OCC(CCCCCC)CCCCCCCC)CCN(CCO)C1CCCCC1)OCCCCCCCCCCCC (centres unmarked) [Compound 30]	0.107	49.64	92.7	5.409
CCCCCCCCCCCCOCC(CN(CCCCCC(=O)OCC(CCCCCC)CCCCCCCC)CCN(CCO)C1CC1)OCCCCCC (centres unmarked) [Compound 22]	0.206	68.67	83.5	5.457
CCCCCCCCCCCCOCC(CN(C)CCN(CCO)C1CCC1)OC(=O)CCCC (centres unmarked) [Compound 40]	0.326	230	36.4	
CCCCCCCCC(CCCCCCCC)CNC(=O)CCOCC(CN(C)CCN(CCO)C1CCCCC1)OCCC(=O)NCC(CCCCCCCC)CCCCCCCC (centres unmarked) [Compound 52]	0.14	66.03	96.5	
CCCCCCCCC(CCCCCCCC)CNC(=O)CCOCC(CN(C)CCN(CCO)C1CCCCCC1)OCCC(=O)NCC(CCCCCCCC)CCCCCCCC (centres unmarked) [Compound 58]	0.032	56.37	97.3	
CCCCCCCCCCCCOCC(CN(CCCCCC)CCN(CCO)C1CCC1)OCCCCCCCCCCCC (centres unmarked) [Compound 16]	0.060	74.31	89.8	
CCCCCCCCCCCCOCC(CN(CCCCCC(=O)OCC(CCCCCC)CCCCCCCC)CCN(CCO)C1CCCCC1)OCCCCCC (centres unmarked) [Compound 25]	0.112	58.01	94.70	
CCCCCCCCCCCCOCC(CN(CCCCCC(=O)OCC(CCCCCC)CCCCCCCC)CCN1CCCCC1)OC(C)=O (centres unmarked) [Compound 9]	0.144	70.97	90.8	
CCCCCCCCCCCCOCC(O)CN(CCCCCC(=O)OCC(CCCCCC)CCCCCCCC)CCN1CCCC1 (centres unmarked) [Compound 10]	0.356	84.22	94.8	
